The results in this text go back to patent US20260076974A1, “COMPOSITIONS FOR PREVENTING AND TREATING INFECTION COMPRISING AN ARTIFICIAL SWEETENER” (Brunel University London, priority 2022, published 2026).

Read-outs that look alike come from different tables or passages of the source.

The subject of test [1] is A. baumannii gene expression. As for the experimental part:
Cells were spun down and washed in RNAlater to preserve mRNA. RNA was isolated using a Qiagen RNAeasy Kit with column DNAase digestion. RNA integrity was determined using a Bioanalyzer. Samples were further processed for RNA sequencing on an Illumina MiSeq with 12 million reads per sample. Quality control and adapter trimming was performed with bcl2fastq.

The next test concerns A. baumannii. Briefly: Crystal violet biofilm formation assay / minimum biofilm inhibition concentration. Format: cell-based, Acinetobacter baumannii. As for the experimental part:
(§1) Biofilm formation is linked to 80% of hospital-associated infections and is a major factor in the routine failure of antibiotic therapy.
(§2) All samples were exposed to the artificial sweeteners in LB medium for 19 hours before crystal violet biofilm assay was performed. […] The data present the mean of three biological replicates±SD. *p≤0.05, *p≤0.001 versus the bacterial growth in control samples.
(§3) All samples were exposed to artificial sweeteners for 19 hours before crystal violet biofilm assay was performed.

In test [2] the test system is E. coli.
Excerpt: (§4) N=3 biological triplicate, each with technical triplicates).
The subject of test [3] is A. baumannii AB5075. Description: Growth inhibition assay in LB medium (OD600). Format: cell-based, Acinetobacter baumannii.
The test system of test [4] is E. coli. The source holds these as a separate data set.
Test [5] relates to P. aeruginosa PA14. Description: Growth inhibition assay in nutrient medium (OD600). Format: cell-based, Pseudomonas aeruginosa.
For test [6], the system named is A. baumannii AB5075. Description: Carbapenem E strip on agar with sweetener.
Excerpt: The data presented is a representative image of three biological replicates±SD.
Test [7] deals with P. aeruginosa PA14. Description: Crystal violet biofilm formation assay / minimum biofilm inhibition concentration. The settings on record: 3% (w/v) sucralose, […] (w/v) ace-K, LB medium, 19 hours. Format: cell-based, Pseudomonas aeruginosa. As for the experimental part: as §1, §2, §3
The next test deals with P. aeruginosa. Description: Antibiotic susceptibility in the presence of sub-minimum inhibitory concentration of ace-K. Format: cell-based, Pseudomonas aeruginosa. The settings on record: grown in the presence of ace-K for 19 hours.
Test [8] relates to A. baumannii AB5075. More on the design: species or system Acinetobacter baumannii. The protocol:
In this model, porcine skin was either burnt or lacerated and the wound infected with A. baumannii AB5075 and left for 3.5 hours to allow a biofilm to form. The dressing was applied for 1 hour and viable cells were collected after treatment. […] Samples were tested in biological triplicate with technical quadruplets.
(8% (w/w)), potassium tetraborate (3% (w/w)), and PVA (3% ((w/w)) were added into a beaker and mixed with deionized water. The mixture was placed in a water bath and heated at 80° C. for three hours with watch glass while being swirled with a stirring rod every 1 hour. Once hydrogels had been obtained, they were placed in a petri dish with custom-made moulds.

The mark [9] stands for this setting: […] sweetener, 19 hours, LB medium.
Setting [10] is: […] sweetener, 19 hours, 37° C.

Excerpt for Klebsiella pneumoniae: as §4

For `O=S(=O)([O-])NC1CCCCC1.[Na+]` [cyclamate, sodium cyclamate], in [1], the “number of genes significantly differentially expressed” value is given as 288 genes. Besides, the “concentration with significant impact on / inhibition of biofilm formation” value in the test on A. baumannii is on record as at least 4%. Besides, the “concentration showing significant / effective growth inhibition” value in the test with E. coli [2] is on record as at least 0.1%; in the test on A. baumannii AB5075 [3], at least 2%; in the test on P. aeruginosa PA14 [5], at least 2%; with Klebsiella pneumoniae, at least 2%. Besides, the “bacterial growth in the presence of sweetener” value (“bacterial growth” for short) with A. baumannii AB5075 [3] and in the test with P. aeruginosa PA14 [5] was “inhibit the growth” throughout. Besides, the “concentration inhibiting biofilm formation” value in the test with K. pneumonia and in the test on E. coli [4] was at least 3% throughout.

With `C[C@@H](O)[C@H]1C(=O)N2C(C(=O)O)=C(S[C@@H]3CN[C@H](CNS(N)(=O)=O)C3)[C@H](C)[C@H]12` [doripenem], the “point to which growth was inhibited on the strip” value with A. baumannii AB5075 [6] (Control) is reported as 18.67 ± 4.61 mg/L; in the test on A. baumannii AB5075 [6] (SAC 1%), 13.33 ± 2.31 ns mg/L; in the test on A. baumannii AB5075 [6] (SAC […]), 0.46 ± 0.07 mg/L.

For `OC[C@@H](O)[C@@H](O)CO` [erythritol, Erythritol], the “bacterial growth” value in the test on A. baumannii AB5075 [3] (setting [9]) is “inhibit the growth”.

For the compound `C[C@@H](O)[C@H]1C(=O)N2C(C(=O)O)=C(SCCN=CN)C[C@H]12` [imipenem], the figures for the “point to which growth was inhibited on the strip” value in the test with A. baumannii AB5075 [6] (Control), in the test on A. baumannii AB5075 [6] (SAC 1%) and in the test with A. baumannii AB5075 [6] (SAC […]) were 21.33 ± 4.61 mg/L, 18.67 ± 4.61 ns mg/L and 1 ± 0.43 mg/L, respectively.

`OCC1O[C@@H](O[C@@H]([C@H](O)[C@@H](O)CO)[C@H](O)CO)C(O)C(O)[C@H]1O` (stereo partly drawn) [lactitol monohydrate, Lactitol]: the “bacterial growth” value with A. baumannii AB5075 [3] (setting [9]) is listed as “inhibit the growth”.

For `OC[C@@H](O)[C@@H](O[C@H]1O[C@H](CO)[C@@H](O)[C@H](O)[C@H]1O)[C@H](O)[C@@H](O)CO` [maltitol, Maltitol], the “bacterial growth” value in the test on A. baumannii AB5075 [3] (setting [9]) and with P. aeruginosa PA14 [5] (setting [10]) was “inhibit the growth” throughout.

In the case of `OC[C@@H](O)[C@@H](O)[C@H](O)[C@H](O)CO` [mannitol, Mannitol], the “bacterial growth” value with A. baumannii AB5075 [3] (setting [9]) is recorded as “inhibit the growth”.

On to `C[C@@H](O)[C@H]1C(=O)N2C(C(=O)O)=C(S[C@@H]3CN[C@H](C(=O)N(C)C)C3)[C@H](C)[C@H]12` [meropenem], for which the entries for the “point to which growth was inhibited on the strip” value in the test on A. baumannii AB5075 [6] (Control), with A. baumannii AB5075 [6] (SAC 1%) and in the test on A. baumannii AB5075 [6] (SAC […]) were at least 32 mg/L, 29.33 ± 4.61 ns mg/L and 0.54 ± 0.19 mg/L, respectively.

`OC[C@@H](O)[C@@H](O)[C@H](O)[C@@H](O)CO` [sorbitol]: in the test with P. aeruginosa PA14 [5] (setting [10]), the “bacterial growth” value is recorded as “inhibit the growth”.

Consider `OC[C@H]1O[C@H](O[C@]2(CCl)O[C@H](CCl)[C@@H](O)[C@@H]2O)[C@H](O)[C@@H](O)[C@H]1Cl` [sucralose, Sucralose], for which the biofilm formation entry in the test on A. baumannii (3% (w/v) sucralose, […] (w/v) ace-K, LB medium, 19 hours) is on record as “significantly inhibit biofilm formation”; with P. aeruginosa PA14 [7], “significantly inhibit biofilm formation”. For the same compound, the “bacterial growth” value in the test with A. baumannii AB5075 [3] (setting [9]) and with P. aeruginosa PA14 [5] (setting [10]) was “inhibit the growth” in each case.

With `OC[C@@H](O)[C@H](O)[C@@H](O)CO` [xylitol, Xylitol], the “bacterial growth” value in the test with A. baumannii AB5075 [3] (setting [9]) and in the test on P. aeruginosa PA14 [5] (setting [10]) was “inhibit the growth” in each case.

gentamicin: in the test on P. aeruginosa, the “susceptibility to antibiotic in the presence of ace-K” value (“susceptibility to antibiotic” for short) is “increased susceptibility”.

As to piperacillin/tazobactam, in the test with P. aeruginosa, the “susceptibility to antibiotic” value was “increased susceptibility”.

Take polymyxin B [reference compound]: the “log reduction in viable cells” value is recorded as 3.13 log in the test with A. baumannii AB5075 [8] and 2.11 log in the test on A. baumannii AB5075 [8] (burn wound biofilms, gauze loaded with 1.5 mL of 0.59 mg/mL polymyxin B singularly). In addition, the “susceptibility to antibiotic” value in the test with P. aeruginosa is listed as “increased susceptibility”.
